In publication PMC9502271, “An Investigation of the Anti-Depressive Properties of Phenylpropanoids and Flavonoids in Hemerocallis citrina Baroni” (Molecules, 2022):
Where two headings read alike, the source gives them in different places.

Assays:
[1] = test system: NO production induced by LPS in BV2 cells; test: Inhibition of NO production in LPS-induced BV2 microglial cells (Griess reagent); type: cell-based; settings: for IC50: compound test concentrations 3.125 to 100 μM, mean ± SD (n = 3), read-out: IC50 NO Inhibitory
Experimental: (§1) BV2 microglia cells were purchased from iCell Bioscience Inc. (Shanghai, China). The cells were grown at 37 °C in a humid environment with 5% CO2. In DMEM with 10% fetal bovine serum and 1% penicillin-streptomycin solution, they were maintained alive. The following assays were carried out while the cells were in the exponential growth phase (subcultured 2–3 times).
To determine how much NO is produced, the literature was consulted. Equal parts of the Griess reagent (1% sulfanilamide and 0.1% N-(1-naphthyl) ethylenediamine dihydrochloride in 2.5% phosphoric acid) were combined with the sample-treated cell culture medium for 5 min at room temperature and in the dark. It was determined that the absorbance was at 540 nm using a microplate reader. The trials were conducted simultaneously in triplicate.

BV2 microglial cells = test: CCK8 cytotoxic activity in BV2 microglial cells; type: cell-based; settings: Mus musculus, BV-2, CCK8, LPS 1 μg/mL 24 h, compound test concentrations 3.125 to 100 μM, read-out: IC50 Cell Viability
Experimental: as §1
The cytotoxic activity was assessed using the CCK8 test. In a 96-well plate, BV2 microglial cells (5 × 10^4 cells/well) were placed in each well and incubated for 12 h. After one hour with each substance, LPS (1 μg/mL) was applied to the BV2 microglia cells for an additional 24 h. The CCK8 solution was then incubated with BV2 cells for 1 h at 37 °C. The absorbance at 450 nm was measured using a plate reader (Molecular Devices, San Jose, CA, USA). The cells that had not been treated were assumed to have a 100% optical density.

[2] = Mus musculus, BV-2, LPS-induced BV2 cells

| SMILES | IC50 [1, 2] | IC50 (BV2 microglial cells) | inhibitory effects on NO production in comparison with the positive drug indomethacin ([1]; LPS-induced BV2 cells) | IC50 ([1]; LPS-induced BV2 cells) |
| --- | --- | --- | --- | --- |
| C[C@@H]1O[C@@H](OC[C@H]2O[C@@H](Oc3c(-c4ccc(O)c(O)c4)oc4cc(O)cc(O)c4c3=O)[C@H](O[C@@H]3O[C@@H](C)[C@H](O)[C@@H](O)[C@H]3O)[C@@H](O)[C@@H]2O)[C@H](O)[C@H](O)[C@H]1O [Compound 22, quercetin-3-O-α-L-rhamnopyranosyl-(1→2)-[α-L-rhamnopyranosyl-(1→6)-β-D-glucopyranoside]] | > 100 µM | > 100 µM |  |  |
| C[C@@H]1O[C@@H](OC[C@H]2O[C@@H](Oc3c(-c4ccc(O)c(O)c4)oc4cc(O)cc(O)c4c3=O)[C@H](O[C@@H]3O[C@@H](C)[C@H](O)[C@@H](O)[C@H]3O)[C@@H](O)[C@H]2O)[C@H](O)[C@H](O)[C@H]1O [Compound 23, quercetin-3-O-α-L-rhamnopyranosyl-(1→2)-[α-L-rhamnopyranosyl-(1→6)-β-D-galactpyranoside]] | > 100 µM | > 100 µM |  |  |
| COc1cc(-c2oc3cc(O)cc(O)c3c(=O)c2O)ccc1O [Compound 24, isorhamnetin] |  | > 100 µM | stronger inhibitory effects |  |
| COc1cc(-c2oc3cc(O)cc(O)c3c(=O)c2O[C@@H]2O[C@H](CO)[C@H](O)[C@H](O)[C@H]2O)ccc1O [Compound 25, isorhamnetin-3-O-β-D-galactopyranoside] |  | > 100 µM | stronger inhibitory effects |  |
| COc1cc(-c2oc3cc(O)cc(O)c3c(=O)c2O[C@@H]2O[C@H](CO[C@@H]3O[C@@H](C)[C@H](O)[C@@H](O)[C@H]3O)[C@H](O)[C@H](O)[C@H]2O[C@@H]2O[C@@H](C)[C@H](O)[C@@H](O)[C@H]2O)ccc1O [Compound 28, isorhamnetin-3-O-α-L-rhamnopyranosyl-(1→2)-[α-L-rhamnopyranosyl-(1→6)-β-D-galactopyranoside]] | < 100 µM | > 100 µM |  | 90.7 ± 10.4 µM |
| COc1cc(-c2oc3cc(O)cc(O)c3c(=O)c2O[C@@H]2O[C@H](CO[C@@H]3O[C@@H](C)[C@H](O)[C@@H](O)[C@H]3O)[C@@H](O)[C@H](O)[C@H]2O[C@@H]2O[C@@H](C)[C@H](O)[C@@H](O)[C@H]2O)ccc1O [Compound 29, isorhamnetin-3-O-α-L-rhamnopyranosyl-(1→2)-[α-L-rhamnopyranosyl-(1→6)-β-D-glucopyranoside]] | > 100 µM | > 100 µM |  |  |
| O=c1c(O)c(-c2ccc(O)cc2)oc2cc(O)cc(O)c12 [Compound 30, kaempferol] |  | > 100 µM | stronger inhibitory effects |  |

Second part, led by results:

| IC50 [1, 2] | SMILES | IC50 (BV2 microglial cells) | inhibitory effects on NO production in comparison with the positive drug indomethacin ([1]; LPS-induced BV2 cells) | IC50 ([1]; LPS-induced BV2 cells) |
| --- | --- | --- | --- | --- |
| > 100 µM | C[C@@H]1O[C@@H](OC[C@H]2O[C@@H](Oc3c(-c4ccc(O)c(O)c4)oc4cc(O)cc(O)c4c3=O)[C@H](O)[C@@H](O)[C@H]2O)[C@H](O)[C@H](O)[C@H]1O [Compound 21, quercetin-3-O-α-L-rhamnopyranosyl-(1→6)-β-D-galactpyranoside] | > 100 µM |  |  |
| > 100 µM | COc1cc(-c2oc3cc(O)cc(O)c3c(=O)c2O[C@@H]2O[C@H](CO)[C@@H](O)[C@H](O)[C@H]2O)ccc1O [Compound 26, isorhamnetin-3-O-β-D-glucopyranoside] | > 100 µM |  |  |
| > 100 µM | COc1cc(-c2oc3cc(O)cc(O)c3c(=O)c2O[C@@H]2O[C@H](CO[C@@H]3O[C@@H](C)[C@H](O)[C@@H](O)[C@H]3O)[C@@H](O)[C@H](O)[C@H]2O)ccc1O [Compound 27] | > 100 µM |  |  |
| > 100 µM | O=c1c(O[C@@H]2O[C@H](CO)[C@H](O)[C@H](O)[C@H]2O)c(-c2ccc(O)cc2)oc2cc(O)cc(O)c12 [Compound 32, kaempferol-3-O-β-D-galactopyranoside] | > 100 µM |  |  |
| > 100 µM | O=c1c(O[C@@H]2O[C@H](CO)[C@@H](O)[C@H](O)[C@H]2O)c(-c2ccc(O)cc2)oc2cc(O)cc(O)c12 [Compound 33, kaempferol-3-O-β-D-glucopyranoside] | > 100 µM |  |  |
| > 100 µM | C[C@@H]1O[C@@H](OC[C@H]2O[C@@H](Oc3c(-c4ccc(O)cc4)oc4cc(O)cc(O)c4c3=O)[C@H](O)[C@@H](O)[C@H]2O)[C@H](O)[C@H](O)[C@H]1O [Compound 34, kaempferol-3-O-α-L-rhamnopyranosyl-(1→6)-β-D-galactpyranoside] | > 100 µM |  |  |
| > 100 µM | C[C@@H]1O[C@@H](OC[C@H]2O[C@@H](Oc3c(-c4ccc(O)cc4)oc4cc(O)cc(O)c4c3=O)[C@H](O)[C@@H](O)[C@@H]2O)[C@H](O)[C@H](O)[C@H]1O [Compound 35, kaempferol-3-O-α-L-rhamnopyranosyl-(1→6)-β-D-glucopyranoside] | > 100 µM |  |  |
| > 100 µM | C[C@@H]1O[C@@H](OC[C@H]2O[C@@H](Oc3c(-c4ccc(O)cc4)oc4cc(O)cc(O)c4c3=O)[C@H](O[C@@H]3O[C@@H](C)[C@H](O)[C@@H](O)[C@H]3O)[C@@H](O)[C@H]2O)[C@H](O)[C@H](O)[C@H]1O [Compound 36, kaempferol-3-O-[α-L-rhamnopyranosyl-(1→6)]-[α-L-rhamnopyranosyl-(1→2)]-β-D-galactopyranoside] | > 100 µM |  |  |
| < 100 µM | C[C@@H]1O[C@@H](OC[C@H]2O[C@@H](Oc3c(-c4ccc(O)cc4)oc4cc(O)cc(O)c4c3=O)[C@H](O[C@@H]3O[C@@H](C)[C@H](O)[C@@H](O)[C@H]3O)[C@@H](O)[C@@H]2O)[C@H](O)[C@H](O)[C@H]1O [Compound 37, kaempferol-3-O-[α-L-rhamnopyranosyl-(1→6)]-[α-L-rhamnopyranosyl-(1→2)]-β-D-glucopyranoside] | > 100 µM |  | 96.1 ± 11.6 µM |
| 52.6 ± 4.58 µM | COc1ccc2c(c1)c(CC(=O)O)c(C)n2C(=O)c1ccc(Cl)cc1 [Indomethacin, indomethacin, reference compound] | > 100 µM |  |  |
